Values after ≈ are worked out from the molar mass of the structure shown.
How the values were obtained:
Type in all cases: functional
Candida parapsilosis = assay: Antifungal activity against Candida parapsilosis ATCC 22019 assessed as growth inhibition by M7-A6 method; conditions: Lodderomyces parapsilosis
Candida albicans [1] = assay: Antifungal activity against Candida albicans ATCC 10231 assessed as growth inhibition by M7-A6 method
Escherichia coli [2] = assay: Antibacterial activity against Escherichia coli ATCC 10536 assessed as growth inhibition by M7-A6 method
Staphylococcus aureus [3] = assay: Antibacterial activity against Staphylococcus aureus ATCC 6538 assessed as growth inhibition by M7-A6 method
Micrococcus luteus [4] = assay: Antibacterial activity against Micrococcus luteus ATCC 10240 assessed as growth inhibition by M7-A6 method
Escherichia coli [5] = assay: Antibacterial activity against Escherichia coli ATCC 8739 assessed as growth inhibition by M7-A6 method
Staphylococcus aureus [6] = assay: Antibacterial activity against Staphylococcus aureus ATCC 6538P assessed as growth inhibition by M7-A6 method
Bacillus cereus = assay: Antibacterial activity against Bacillus cereus ATCC 11778 assessed as growth inhibition by M7-A6 method
Bacillus subtilis = assay: Antibacterial activity against Bacillus subtilis ATCC 6633 assessed as growth inhibition by M7-A6 method
Candida albicans [7] = assay: Antifungal activity against Candida albicans ATCC 2091 assessed as growth inhibition by M7-A6 method
Pseudomonas aeruginosa [8] = assay: Antibacterial activity against Pseudomonas aeruginosa ATCC 9027 assessed as growth inhibition by M7-A6 method
Pseudomonas aeruginosa [9] = assay: Antibacterial activity against Pseudomonas aeruginosa ATCC 15442 assessed as growth inhibition by M7-A6 method
Micrococcus luteus [10] = assay: Antibacterial activity against Micrococcus luteus ATCC 9341 assessed as growth inhibition by M7-A6 method
Saccharomyces cerevisiae = assay: Antifungal activity against Saccharomyces cerevisiae ATCC 9763 assessed as growth inhibition by M7-A6 method
[11] = Antifungal activity against Zygosaccharomyces rouxii ATCC 28253 assessed as growth inhibition by M7-A6 method
Aspergillus brasiliensis = assay: Antifungal activity against Aspergillus brasiliensis ATCC 16404 assessed as growth inhibition by M7-A6 method
Staphylococcus aureus [12] = assay: Antibacterial activity against erythromycin, amikacin, clindamycin, ciprofloxacin, methicillin-resistant Staphylococcus aureus 15K/11 assessed as growth inhibition by M7-A6 method
Staphylococcus aureus [13] = assay: Antibacterial activity against penicillin, erythromycin, amikacin, clindamycin, ciprofloxacin, methicillin-resistant Staphylococcus aureus 495/11 assessed as growth inhibition by M7-A6 method
Staphylococcus aureus [14] = assay: Antibacterial activity against penicillin, erythromycin, amikacin, clindamycin, ciprofloxacin, methicillin-resistant Staphylococcus aureus 572/12 assessed as growth inhibition by M7-A6 method
Staphylococcus aureus [15] = assay: Antibacterial activity against penicillin, erythromycin, clindamycin, ciprofloxacin, methicillin-resistant Staphylococcus aureus 19K/11 assessed as growth inhibition by M7-A6 method
Staphylococcus aureus [16] = assay: Antibacterial activity against penicillin, erythromycin, amikacin, clindamycin, ciprofloxacin, methicillin-resistant Staphylococcus aureus 573/12 assessed as growth inhibition by M7-A6 method

MIC (Candida parapsilosis) [µM]	MIC (Candida albicans [1]) [µM]	MIC (Escherichia coli [2]) [µM]	MIC (Staphylococcus aureus [3]) [µM]	MIC (Micrococcus luteus [4]) [µM]	MIC (Escherichia coli [5]) [µM]	MIC (Staphylococcus aureus [6]) [µM]	MIC (Bacillus cereus) [µM]	MIC (Bacillus subtilis) [µM]	MIC (Candida albicans [7]) [µM]	MIC (Pseudomonas aeruginosa [8]) [µM]	MIC (Pseudomonas aeruginosa [9]) [µM]	MIC (Micrococcus luteus [10]) [µM]	MIC (Saccharomyces cerevisiae) [µM]	MIC [11] [µM]	MIC (Aspergillus brasiliensis) [µM]	SMILES	other results
> 15200	> 15200	15200 (≈ 7240 µg/mL)	7610 (≈ 3620 µg/mL)	1520 (≈ 723 µg/mL)	7610 (≈ 3620 µg/mL)	7610 (≈ 3620 µg/mL)	7610 (≈ 3620 µg/mL)	1520 (≈ 723 µg/mL)	> 15200	> 15200	> 15200	760 (≈ 361 µg/mL)	–	–	–	COc1cc(C(=N)N)cc(OC)c1OCCN(C)CCOc1c(OC)cc(C(=N)N)cc1OC	–
> 17000	> 17000	17000 (≈ 7840 µg/mL)	210 (≈ 97.1 µg/mL)	51 (≈ 23.6 µg/mL)	17000 (≈ 7840 µg/mL)	210 (≈ 97.1 µg/mL)	17000 (≈ 7840 µg/mL)	420 (≈ 194 µg/mL)	> 17000	> 17000	> 17000	17 (≈ 7.86 µg/mL)	–	–	–	COc1cc(C(=N)N)cc(OC)c1OCCOCCOc1c(OC)cc(C(=N)N)cc1OC	–
360 (≈ 216 µg/mL)	180 (≈ 108 µg/mL)	3580 (≈ 2140 µg/mL)	140 (≈ 83.8 µg/mL)	89 (≈ 53.3 µg/mL)	3580 (≈ 2140 µg/mL)	360 (≈ 216 µg/mL)	72 (≈ 43.1 µg/mL)	720 (≈ 431 µg/mL)	1430 (≈ 856 µg/mL)	7160 (≈ 4290 µg/mL)	7160 (≈ 4290 µg/mL)	72 (≈ 43.1 µg/mL)	1430 (≈ 856 µg/mL)	1430 (≈ 856 µg/mL)	7160 (≈ 4290 µg/mL)	COc1cc(C(=N)N)ccc1OCCN(CCOc1ccc(C(=N)N)cc1OC)S(=O)(=O)c1ccc(NC(C)=O)cc1	–
71 (≈ 24.2 µg/mL)	5920 (≈ 2020 µg/mL)	11800 (≈ 4030 µg/mL)	590 (≈ 201 µg/mL)	71 (≈ 24.2 µg/mL)	2370 (≈ 807 µg/mL)	590 (≈ 201 µg/mL)	590 (≈ 201 µg/mL)	590 (≈ 201 µg/mL)	5920 (≈ 2020 µg/mL)	> 23700	> 23700	24 (≈ 8.17 µg/mL)	11800 (≈ 4030 µg/mL)	5920 (≈ 2020 µg/mL)	5920 (≈ 2020 µg/mL)	N=C(N)c1ccc(NCCOCCNc2ccc(C(=N)N)cc2)cc1	–
20 (≈ 7.33 µg/mL)	120 (≈ 44 µg/mL)	9780 (≈ 3580 µg/mL)	59 (≈ 21.6 µg/mL)	19.5 (≈ 7.15 µg/mL)	9780 (≈ 3580 µg/mL)	120 (≈ 44 µg/mL)	59 (≈ 21.6 µg/mL)	98 (≈ 35.9 µg/mL)	120 (≈ 44 µg/mL)	> 19600	> 19600	3.9 (≈ 1.43 µg/mL)	240 (≈ 88 µg/mL)	120 (≈ 44 µg/mL)	9780 (≈ 3580 µg/mL)	CN(CCCCCN(C)c1ccc(C(=N)N)cc1)c1ccc(C(=N)N)cc1	–
5260 (≈ 2120 µg/mL)	10500 (≈ 4230 µg/mL)	10500 (≈ 4230 µg/mL)	260 (≈ 105 µg/mL)	520 (≈ 209 µg/mL)	2100 (≈ 845 µg/mL)	520 (≈ 209 µg/mL)	1050 (≈ 423 µg/mL)	2100 (≈ 845 µg/mL)	10500 (≈ 4230 µg/mL)	> 21000	> 21000	2100 (≈ 845 µg/mL)	10500 (≈ 4230 µg/mL)	–	21000 (≈ 8470 µg/mL)	COc1cc(C(=N)N)ccc1OCCOCCOc1ccc(C(=N)N)cc1OC	–
66 (≈ 22.6 µg/mL)	> 22200	550 (≈ 188 µg/mL)	550 (≈ 188 µg/mL)	11 (≈ 3.77 µg/mL)	550 (≈ 188 µg/mL)	550 (≈ 188 µg/mL)	550 (≈ 188 µg/mL)	550 (≈ 188 µg/mL)	> 22200	11100 (≈ 3790 µg/mL)	11100 (≈ 3790 µg/mL)	4.4 (≈ 1.51 µg/mL)	11100 (≈ 3790 µg/mL)	–	> 22200	N=C(N)c1ccc(OCCOCCOc2ccc(C(=N)N)cc2)cc1	–

SMILES	MIC (Candida parapsilosis) [µM]	MIC (Candida albicans [1]) [µM]	MIC (Escherichia coli [2]) [µM]	MIC (Staphylococcus aureus [3]) [µM]	MIC (Micrococcus luteus [4]) [µM]	MIC (Escherichia coli [5]) [µM]	MIC (Staphylococcus aureus [6]) [µM]	MIC (Bacillus cereus) [µM]	MIC (Bacillus subtilis) [µM]	MIC (Candida albicans [7]) [µM]	MIC (Pseudomonas aeruginosa [8]) [µM]	MIC (Pseudomonas aeruginosa [9]) [µM]	MIC (Micrococcus luteus [10]) [µM]	MIC (Saccharomyces cerevisiae) [µM]	MIC [11] [µM]	MIC (Aspergillus brasiliensis) [µM]	other results
N=C(N)c1ccc(OCCSCCOc2ccc(C(=N)N)cc2)cc1	23 (≈ 8.24 µg/mL)	140 (≈ 50.2 µg/mL)	580 (≈ 208 µg/mL)	69.5 (≈ 24.9 µg/mL)	23 (≈ 8.24 µg/mL)	140 (≈ 50.2 µg/mL)	140 (≈ 50.2 µg/mL)	69.5 (≈ 24.9 µg/mL)	140 (≈ 50.2 µg/mL)	140 (≈ 50.2 µg/mL)	1740 (≈ 624 µg/mL)	2320 (≈ 832 µg/mL)	4.6 (≈ 1.65 µg/mL)	290 (≈ 104 µg/mL)	70 (≈ 25.1 µg/mL)	70 (≈ 25.1 µg/mL)	MIC (Staphylococcus aureus [12]): 1160 µM (≈ 416 µg/mL); MIC (Staphylococcus aureus [13]): 2320 µM (≈ 832 µg/mL); MIC (Staphylococcus aureus [14]): 290 µM (≈ 104 µg/mL); MIC (Staphylococcus aureus [15]): 140 µM (≈ 50.2 µg/mL); MIC (Staphylococcus aureus [16]): 290 µM (≈ 104 µg/mL)
